Experimental data: patent US20120208204A1, “Compositions and Methods for Inhibiting Tumor Growth” (The Brigham and Women's Hospital, Inc., priority 2009, published 2012)

Tested on: SGK2
Test: Inhibition of kinase activity by SGK2 inhibitory compounds, single concentration
Type: biochemical
Conditions: 10 μM compound
Text: A library of compounds was screened for inhibitors of SGK2 and PAK3 activity by assaying phosphorylation of a generic peptide substrate either directly; or indirectly by inhibiting upstream kinase PDK1 from activating the enzyme in vitro. In both cases, the phosphorylated substrate was detected using a specific anti-phospho peptide antibody that is coupled with Eu^3+ Cryptate and XL665 conjugated with streptavidin. […] All initial hits were re-assayed as a dose response series with eight 3-fold dilutions and resulting final concentrations ranged from 0.9 nM to 20 μM.

Compound	% Inhibition at 10 μM [%]
CCCc1cc2c(cc1N)OCO2 [LDN-0073854]	67
CNC(=O)Oc1c(Br)cc2sc(=O)oc2c1Br [LDN-0072860]	72
Oc1c(Cl)cc(Cl)c2c1NCCC2 [LDN-0073973]	67
N#Cc1c(-c2ccco2)cc(-c2cccs2)nc1N [LDN-0071067]	80
O=C(C=Cc1ccco1)c1ccc2c(c1)C1C=CCC1C(c1ccc(Cl)cc1)N2 (stereo not drawn) [LDN-0033450]	94
Oc1ccc(N=Cc2ccc[nH]2)cc1N=Cc1ccc[nH]1 [LDN-0085170]	62
O=C(O)C1Nc2ccc(Br)cc2C2C=CCC12 (stereo not drawn) [LDN-0061702]	92
CN(C)c1ccc(-c2nc3cc(N)ccc3[nH]2)cc1 [LDN-0060537]	72
O=c1oc2cc(Br)c(O)c(Br)c2s1 [LDN-0060240]	94
O=C(O)c1cc2c3c(c1)C1C=CCC1CN3CC1CC=CC21 (stereo not drawn) [LDN-0043107]	73
O=c1c(-c2cc(O)c(O)c(O)c2)coc2cc(O)c(O)c(O)c12 [LDN-0096812]	97
CC(=O)Oc1cc(-c2coc3cc(OC(C)=O)c(OC(C)=O)c(OC(C)=O)c3c2=O)cc(OC(C)=O)c1OC(C)=O [LDN-0096738]	96
CC(=O)Oc1ccc(C2Nc3c(C(=O)O)ccc([N+](=O)[O-])c3C3C=CCC32)cc1 (stereo not drawn) [LDN-0033447]	65
Oc1ccc(Cl)cc1-c1cc(-c2ccco2)n[nH]1 [LDN-0086824]	68
CN(C)c1ccc(C=Cc2nc3cc(N)ccc3[nH]2)cc1 [LDN-0060496]	67
Nc1ccc2c(c1)OC1(CCCC1)O2 [LDN-0073507]	74
O=C1CC(N2CCCCC2)C=C1Nc1ccc(F)cc1 (stereo not drawn) [LDN-0074168]	73

Compound	% Inhibition at 10 μM [%]
Oc1ccc(-c2csc(NCc3ccco3)n2)cc1 [LDN-0071858]	65
c1ccc(Sc2ccc(-c3nc(-c4ccccc4)[nH]c3-c3ccccc3)cc2)cc1 [LDN-0048956]	68
Oc1cc(O)c2c(c1)O[C@@]1(c3ccc(O)c(O)c3)Oc3cc(O)c4c(c3[C@@H]2[C@H]1O)O[C@H](c1ccc(O)c(O)c1)[C@H](O)[C@H]4c1c(O)cc(O)c2c1O[C@H](c1ccc(O)c(O)c1)[C@H](O)C2 [LDN-0022358]	93
Oc1cccc(C2Nc3cccc4cccc(c34)N2)c1 [LDN-0045024]	90
C=C1c2cccc(O)c2C(=O)C2=C(O)C3(O)C(=O)C(C(N)=O)=C(O)C(N(C)C)C3C(O)C12.Cl (stereo not drawn) [LDN-0096663]	70
O=C(O)C1Nc2c(O)cccc2C2C=CCC12 (stereo not drawn) [LDN-0062847]	95
O=c1cc(-c2cc(O)c(O)c(O)c2)oc2cc(O)cc(O)c12 [LDN-0097731]	87
O=c1oc2c(O)c(O)cc3c(=O)oc4c(O)c(O)cc1c4c23 [LDN-0097519]	85
O=C(OCC1OC(OC(=O)c2cc(O)c(O)c(OC(=O)c3cc(O)c(O)c(O)c3)c2)C(OC(=O)c2cc(O)c(O)c(OC(=O)c3cc(O)c(O)c(O)c3)c2)C(OC(=O)c2cc(O)c(O)c(OC(=O)c3cc(O)c(O)c(O)c3)c2)C1OC(=O)c1cc(O)c(O)c(OC(=O)c2cc(O)c(O)c(O)c2)c1)c1cc(O)c(O)c(OC(=O)c2cc(O)c(O)c(O)c2)c1 (stereo not drawn) [LDN-0097728]	85
O=c1oc2c(Br)c(O)c(Br)cc2s1 [LDN-0060733]	93
C1=CC2c3cccc4c3N(CC2C1)CC1CC=CC41 (stereo not drawn) [LDN-0050317]	69
O=C(O)c1cc(O)c(=O)c2c(O)c(O)ccc2c1 [LDN-0096503]	73
CC(C)COC(=O)c1ccc2c(c1)C1C=CCC1C(C(=O)O)N2 (stereo not drawn) [LDN-0068134]	84
O=C1C=C2CC3(O)COc4c(ccc(O)c4O)C3=C2C=C1O (stereo not drawn) [LDN-0097524]	93
O=c1c(O)cccc2ccc(O)c(O)c12 [LDN-0096728]	87
Oc1cc2c(cc1O)C1c3ccc(O)c(O)c3OCC1(O)C2 (stereo not drawn) [LDN-0096990]	91
Oc1ccc(C2Nc3cccc4cccc(c34)N2)c(O)c1 [LDN-0045038]	91

The next lines start with the values.

% Inhibition at 10 μM [%]	Compound
79	CN(C)c1ccc(C2=Nc3cccc4cccc(c34)N2)cc1 [LDN-0047445]
67	Cc1cccc(NC(=O)CSc2ncnc3c2oc2ccccc23)c1C [LDN-0107915]
68	CCOC(=O)C1C(=O)NC(SCC(=O)Nc2ccc(Br)cc2)=C(C#N)C1c1ccccc1OCC (stereo not drawn) [LDN-0028584]
89	C=CCc1cccc(C2Nc3cccc4cccc(c34)N2)c1O [LDN-0045040]
84	Oc1cccc2ccc(Nc3ccccn3)nc12 [LDN-0088017]
66	COc1ccc(NC(=O)CSc2ncnc3c2oc2ccccc23)cc1 [LDN-0107905]
62	Cc1ccc(NC(=O)Cn2cc(C(=O)c3ccccc3)c(=O)c3ccc(C)nc32)cc1 [LDN-0130103]
80	c1coc(C2=Nc3cccc4cccc(c34)N2)c1 [LDN-0088682]
64	COc1cccc(=O)c2c(C)n(CC(=O)c3ccccc3)c(C)c12 [LDN-0071595]
67	O=c1cc(-c2ccccc2)oc2cc(O)c(O)c(O)c12 [LDN-0096673]
85	Oc1ccccc1-c1cc(-c2ccco2)[nH]n1 [LDN-0064229]
73	COc1cccc(C2Nc3cccc4cccc(c34)N2)c1OC [LDN-0045022]
78	CCOc1ccc(NC(=O)CSc2ncnc3c2oc2ccccc23)cc1 [LDN-0094202]
68	O=C(CSc1nnc(-c2ccncc2)[nH]1)c1ccc(O)c(O)c1 [LDN-0031199]
70	CN(C)c1ccc2nc(SCC(=O)c3ccccc3)sc2c1 [LDN-0073108]
91	N#Cc1c(N)nc(SCC(=O)c2ccc(O)c(O)c2)c(C#N)c1-c1ccc(O)cc1 [LDN-0028574]
79	Cc1cc(N)c2ccccc2[n+]1CCCCCCCCCC[n+]1c(C)cc(N)c2ccccc21.[Cl-].[Cl-] [LDN-0096422]
89	Oc1ccccc1C1Nc2cccc3cccc(c23)N1 [LDN-0045035]
70	Oc1ccc(-c2nc(-c3ccc4sc5ccccc5c4c3)c(-c3ccccc3)[nH]2)cc1O [LDN-0044885]
67	O=C(CSc1nnc(-c2ccco2)[nH]1)c1ccc(O)c(O)c1 [LDN-0031187]
70	Cc1ccc2c(=O)c(C(=O)c3ccccc3)cn(CC(=O)Nc3cccc(C)c3C)c2n1 [LDN-0130105]
98	O=c1cc(-c2ccccc2)c2ccc(O)c(O)c2o1 [LDN-0063260]
67	Cc1sc(NC(=O)COc2cccc(F)c2)c(C#N)c1C [LDN-0086947]
90	Cc1ccc(C)n1-c1ccc(O)c(C(=O)O)c1 [LDN-0062564]
71	N#Cc1c(N)nc(SCC(=O)Nc2ccc([N+](=O)[O-])c3ccccc23)c(C#N)c1-c1ccco1 [LDN-0028673]
68	CCN(CC)c1ccc(C2Nc3cccc4cccc(c34)N2)c(O)c1 [LDN-0045032]
